pKi: −log10 of the molar value.
Columns and labels:
[1] = biological target: Mu-type opioid receptor (Mus musculus) (UniProt P42866); assay: Ratio of binding affinity against mu to that of delta opioid receptor
Mu-type opioid receptor = Mu-type opioid receptor (Mus musculus, UniProt P42866); assay: Binding affinity against mu opioid receptor […]
[2] = Binding affinity against delta opioid receptor […]; design: species or system Mus musculus

Sequence of Mu-type opioid receptor (P42866 whole entry): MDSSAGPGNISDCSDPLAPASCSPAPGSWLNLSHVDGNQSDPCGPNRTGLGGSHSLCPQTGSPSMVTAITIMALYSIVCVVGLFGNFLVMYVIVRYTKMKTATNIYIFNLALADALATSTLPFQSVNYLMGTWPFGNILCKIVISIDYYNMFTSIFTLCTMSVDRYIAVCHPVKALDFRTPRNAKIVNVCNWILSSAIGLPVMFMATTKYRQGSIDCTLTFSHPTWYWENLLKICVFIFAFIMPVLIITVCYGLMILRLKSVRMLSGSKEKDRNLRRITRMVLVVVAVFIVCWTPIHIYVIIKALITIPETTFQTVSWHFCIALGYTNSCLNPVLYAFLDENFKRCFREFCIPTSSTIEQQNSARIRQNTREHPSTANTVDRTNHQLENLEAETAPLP
Sequence of Mu-type opioid receptor (Mus musculus) (P42866 whole entry): as above

Structure (SMILES)	Ratio [1]	pKi (Mu-type opioid receptor)	pKi [2]
CCNC(=O)c1ccc(C(=C2CC3CCC(C2)N3Cc2ccoc2)c2cccc(CN)c2)cc1	3.6	7.15	7.70
C=C(C)CCN1[C@@H]2CC[C@H]1C/C(=C(/c1ccc(C(=O)NCC)cc1)c1cccc(C(C)=O)c1)C2		8.55	8.82
CCNC(=O)c1ccc(/C(C#N)=C2/C[C@H]3CC[C@@H](C2)N3Cc2ccoc2)cc1		8.64	8.96
CCNC(=O)c1ccc(C(=C2CC3CCC(C2)N3Cc2cccc(C(=O)O)c2)c2ccccc2)cc1	1.7	6.32	6.55
C=C(C)CCN1[C@@H]2CC[C@H]1C/C(=C(\c1ccc(C(=O)NCC)cc1)c1cccc(C(=O)O)c1)C2		7.62	7.52
CCNC(=O)c1ccc(C(=C2CC3CCC(C2)N3Cc2ccoc2)c2cnccn2)cc1	2.9	8.00	8.47
C=C(C)CCN1C2CCC1CC(=C(c1ccc(C(=O)NCC)cc1)c1cccc(C(C)=O)c1)C2	1.1	8.72	8.74
CCNC(=O)c1ccc(C(=C2CC3CCC(C2)N3Cc2ccoc2)c2ccc(O)c(OC)c2)cc1	2	9.23	9.52
CCNC(=O)c1ccc(C(=C2CC3CCC(C2)N3Cc2c[nH]cn2)c2cccc(NC(C)=O)c2)cc1	0.5		7.72
CCNC(=O)c1ccc(C(=C2CC3CCC(C2)N3Cc2ccoc2)c2ccc(C(=O)O)cc2)cc1	2.3	7.92	8.28
CCNC(=O)c1ccc(C(=C2CC3CCC(C2)N3CCc2ccccc2)c2ccccc2)cc1	300	7.14	9.62
CCNC(=O)c1ccc(C(=C2CC3CCC(C2)N3Cc2ccoc2)c2ccc(C(N)=O)cc2)cc1	0.33	8.89	8.41
CCNC(=O)c1ccc(C(=C2CC3CCC(C2)N3Cc2ccoc2)c2ccc(CO)cc2)cc1	7	7.72	8.57
C=C(C)CCN1[C@@H]2CC[C@H]1C/C(=C(\c1ccc(C(=O)NCC)cc1)c1cccc(C(C)=O)c1)C2		6.17	7.55
CCNC(=O)c1ccc(C(=C2CC3CCC(C2)N3Cc2ccoc2)c2cncnc2)cc1	3	8.16	8.64
CCNC(=O)c1ccc(/C(=C2\C[C@H]3CC[C@@H](C2)N3Cc2ccsc2)c2ccc(CO)cc2)cc1		7.77	8.70
C=C(C)CCN1C2CCC1CC(=C(c1ccc(C(=O)NCC)cc1)c1ccco1)C2	1.1	8.20	8.25
CCNC(=O)c1ccc(C(=C2CC3CCC(C2)N3Cc2ccoc2)c2cccc(CO)c2)cc1	5.4	9.09	9.82
CCNC(=O)c1ccc(/C(=C2/C[C@H]3CC[C@@H](C2)N3Cc2ccsc2)c2ccc(CO)cc2)cc1		7.10	7.77
CCNC(=O)c1ccc(C(=C2CC3CCC(C2)N3Cc2ccoc2)c2cccc(N)c2)cc1	1.3	8.59	8.70
CCNC(=O)c1ccc(C(=C2CC3CCC(C2)N3Cc2ccoc2)c2cccnc2)cc1	3	8.92	9.40

Structure (SMILES)	Ratio [1]	pKi (Mu-type opioid receptor)	pKi [2]
CCNC(=O)c1ccc(C(=C2CC3CCC(C2)N3Cc2ccoc2)c2cc(N)cc(C(=O)O)c2)cc1	160	5.04	7.25
CCNC(=O)c1ccc(C(=C2CC3CCC(C2)N3Cc2ccoc2)c2ccc(NC(C)=O)cc2)cc1	2.4	9.10	9.47
CCNC(=O)c1ccc(C(C#N)=C2CC3CCC(C2)N3Cc2ccoc2)cc1	3.3	9.00	9.52
CCNC(=O)c1ccc(C(=C2CC3CCC(C2)N3Cc2ccoc2)c2cccc(-c3nn[nH]n3)c2)cc1	2100		9.14
CCNC(=O)c1ccc(C(=C2CC3CCC(C2)N3Cc2cccs2)c2ccccn2)cc1	1.6	8.22	8.42
CCNC(=O)c1ccc(C(=C2CC3CCC(C2)N3Cc2ccoc2)c2ccc3c(c2)OCO3)cc1	1	8.96	
CCNC(=O)c1ccc(C(=C2CC3CCC(C2)N3Cc2ccoc2)c2ccc(N(C)C)cc2)cc1	5.9	7.29	8.06
CCNC(=O)c1ccc(C(=C2CC3CCC(C2)N3Cc2ccsc2)c2cnccn2)cc1	0.15	8.60	7.77
CCNC(=O)c1ccc(/C(=C2\C[C@H]3CC[C@@H](C2)N3Cc2ccccn2)c2ccc(C(=O)N(C)C)cc2)cc1		7.85	9.70
CCNC(=O)c1ccc(C(=C2CC3CCC(C2)N3Cc2ccoc2)c2ccc(F)cc2)cc1	1.2	8.77	8.85
CCNC(=O)c1ccc(C(=C2CC3CCC(C2)N3Cc2ccccn2)c2cccc(NC(C)=O)c2)cc1	0.13	8.44	7.55
CCNC(=O)c1ccc(/C(=C2/C[C@H]3CC[C@@H](C2)N3Cc2ccccn2)c2ccc(C(=O)N(C)C)cc2)cc1		7.00	9.30
CCNC(=O)c1ccc(/C(Br)=C2\C[C@H]3CC[C@@H](C2)N3Cc2ccoc2)cc1		9.70	9.52
CCNC(=O)c1ccc(C(=C2CC3CCC(C2)N3Cc2cnc[nH]2)c2cccc(NC(C)=O)c2)cc1		8.03	
CCNC(=O)c1ccc(C(=C2CC3CCC(C2)N3Cc2ccoc2)c2ccncc2)cc1	0.37	8.66	8.22
CCNC(=O)c1ccc(C(=C2CC3CCC(C2)N3Cc2ccoc2)c2cccc(F)c2)cc1	9.3	8.43	9.40
CCNC(=O)c1ccc(C(=C2CC3CCC(C2)N3Cc2ccoc2)c2c(C)noc2C)cc1	1.5	8.74	8.92
CCNC(=O)c1ccc(C(=C2CC3CCC(C2)N3Cc2ccoc2)c2cccc(C#N)c2)cc1	5.5	8.48	9.22
CCNC(=O)c1ccc(C(=C2CC3CCC(C2)N3Cc2ccoc2)c2ccc(S(N)(=O)=O)cc2)cc1	3.1	7.30	7.80
CCNC(=O)c1ccc(C(=C2CC3CCC(C2)N3Cc2ccoc2)c2nnn[nH]2)cc1	0.4	7.08	6.68
CCNC(=O)c1ccc(C(=C2CC3CCC(C2)N3Cc2ccoc2)c2cccc(C(=O)O)c2)cc1	8		8.46

Structure (SMILES)	Ratio [1]	pKi (Mu-type opioid receptor)	pKi [2]
CCNC(=O)c1ccc(C(=C2CC3CCC(C2)N3Cc2ccoc2)c2ccc([N+](=O)[O-])cc2)cc1	6.5	8.82	9.64
CCNC(=O)c1ccc(C(=C2CC3CCC(C2)N3Cc2ccoc2)c2c(C)cccc2C)cc1	1.1	8.85	8.89
C=C(C)CCN1[C@@H]2CC[C@H]1C/C(=C(/c1ccc(C(=O)NCC)cc1)c1cccc(C(=O)O)c1)C2		7.24	8.66
CCNC(=O)c1ccc(C(=C2CC3CCC(C2)N3Cc2ccoc2)c2cccc(NC(C)=O)c2)cc1	2.4	8.92	9.30
CCNC(=O)c1ccc(/C(Br)=C2/C[C@H]3CC[C@@H](C2)N3Cc2ccoc2)cc1		7.41	7.54
CCNC(=O)c1ccc(/C(=C2/C[C@H]3CC[C@@H](C2)N3Cc2ccsc2)c2cccc(-c3nn[nH]n3)c2)cc1		5.51	7.51
CCNC(=O)c1ccc(/C(=C2\C[C@H]3CC[C@@H](C2)N3Cc2ccsc2)c2cccc(-c3nn[nH]n3)c2)cc1		7.92	9.15
CCNC(=O)c1ccc(C(Br)=C2CC3CCC(C2)N3Cc2ccoc2)cc1	2.4	8.72	9.10
CCNC(=O)c1ccc(C(=C2CC3CCC(C2)N3Cc2ccoc2)c2cccc(CCC(=O)O)c2)cc1	3.9	8.52	9.11
CCNC(=O)c1ccc(C(=C2CC3CCC(C2)N3Cc2ccoc2)c2ccc(S(C)(=O)=O)cc2)cc1	1.6	8.51	8.70
CCNC(=O)c1ccc(/C(C#N)=C2\C[C@H]3CC[C@@H](C2)N3Cc2ccoc2)cc1		8.59	9.05
CCNC(=O)c1ccc(C(=C2CC3CCC(C2)N3Cc2ccoc2)c2cc(C(=O)O)cc([N+](=O)[O-])c2)cc1	13	7.92	9.03
CCNC(=O)c1ccc(C(=C2CC3CCC(C2)N3Cc2ccoc2)c2ccccn2)cc1	4.5	7.35	8.00
CCNC(=O)c1ccc(C(=C2CC3CCC(C2)N3Cc2ccoc2)c2cnc3ccccc3c2)cc1	0.2	8.40	7.70
CCNC(=O)c1ccc(C(=C2CC3CCC(C2)N3Cc2ccoc2)c2ccc(C(C)=O)cc2)cc1	5.2	8.77	9.48
CCNC(=O)c1ccc(C=C2CC3CCC(C2)N3Cc2ccoc2)cc1	1.2	6.96	7.03
CCNC(=O)c1ccc(C(=C2CC3CCC(C2)N3Cc2ccoc2)c2cccc(C(C)=O)c2)cc1	3.3	8.89	9.40
CCN(CC)C(=O)c1ccc(C(=C2CC3CCC(C2)N3CCc2ccccc2)c2ccccc2)cc1	0.0055	9.59	7.33
CCNC(=O)c1ccc(C(=C2CC3CCC(C2)N3Cc2ccsc2)c2ccc3c(c2)OCO3)cc1	0.42	8.89	8.51
CCNC(=O)c1ccc(C(=C2CC3CCC(C2)N3Cc2cccnc2)c2ccccc2)cc1	0.87		7.15
CCNC(=O)c1ccc(C(=C2CC3CCC(C2)N3Cc2ccoc2)c2ccc(C(=O)N(C)C)cc2)cc1	1.5	8.17	8.34
